According to the NIST ThermoML archive (doi:10.1016/j.jct.2009.01.014):

Conditions: for molar entropy: 101.33 kPa, Crystal 1, Vacuum adiabatic calorimetry

[Al+3].[Al+3].[Co+2].[O-2].[O-2].[O-2].[O-2] [aluminium cobalt oxide]
Conditions	Triple point temperature [K]	molar entropy [J/K/mol]
15 K	–	2.91
20 K	–	4.1
25 K	–	5.02
30 K	–	5.79
35 K	–	6.5
40 K	–	7.21
45 K	–	7.95
50 K	–	8.75
55 K	–	9.61
60 K	–	10.56
65 K	–	11.58
70 K	–	12.68
75 K	–	13.85
80 K	–	15.1
85 K	–	16.42
90 K	–	17.81
95 K	–	19.26
100 K	–	20.77
105 K	–	22.33
110 K	–	23.96
120 K	–	27.36
130 K	–	30.94
140 K	–	34.68
150 K	–	38.55
160 K	–	42.52
170 K	–	46.6
180 K	–	50.73
190 K	–	54.92
200 K	–	59.14
210 K	–	63.39
220 K	–	67.65
230 K	–	71.9
240 K	–	76.15
250 K	–	80.37
260 K	–	84.57
270 K	–	88.74
280 K	–	92.88
290 K	–	97
298.15 K	–	100.31
300 K	–	101.06
310 K	–	105.07
320 K	–	109.05
330 K	–	112.99
340 K	–	116.88
350 K	–	120.72
360 K	–	124.52
370 K	–	128.28
380 K	–	131.99
390 K	–	135.65
Crystal 2, Adiabatic calorimetry	9	–
